The target of assay [1] is JAK2 (Homo sapiens (Human), UniProt O60674). As to the kind of experiment: JAK2 activity inhibition assay (radioactive kinase assay / Caliper assay). The assay is classed as biochemical. Summed up: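 Reaction ran 25 min at 28° C after adding peptide/ATP mix (10 mM MgCl2) to compound and enzyme in HEPES pH 7.5 buffer with Brij-35, Triton and EGTA. EDTA stop, then microfluidic off-chip separation quantified phosphorylated peptide.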

For assay [2], the system named is JAK2-pSTAT5. Nature of the assay: GM-CSF induced pSTAT5 in human PBMC. The assay is classed as cell-based. As to conditions: read-out: JAK2-pSTAT5 EC50. As for the experimental part: Human PBMC are isolated from buffy coat and are stored frozen for assays as needed. […] 15 μl of compound or DMSO is added to the well at the desired concentrations and incubated at 1 hr at 37 C. 15 μl of stimulus (final concentration of 1.7 ng/mL IL-12) is added for 30 minutes prior to pSTAT4 and total STAT4 analysis using cell lysates prepared and analyzed by MSD reagents as per manufacturer protocol. The final DMSO concentration of compound in the assay is 0.1%.
Cells are prepared for analysis as in the above procedure and 15 μl of GM-CSF (final concentration 5 ng/mL) is added for 20 minutes prior to pSTAT5 and total STAT5 analysis using cell lysates prepared and analyzed by MSD reagents as per manufacturer protocol. The final DMSO concentration of compound in the assay is 0.1%.

The target in assay [3] is TYK2 (Homo sapiens (Human), UniProt P29597). Nature of the assay: Tyk2 activity inhibition assay (radioactive kinase assay / Caliper assay). The assay is classed as biochemical. Summed up: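 Two formats were used. Caliper off-chip mobility shift read phosphorylated peptide 30 (3 uM) after 25 min at 28° C with 9.75 nM TYK2 and ATP at 16 uM or 1 mM. Radioactive assay: 10 μM 33P-ATP, 20 μM peptide, 120 min room temp, P81 filter counting.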
TYK2, sequence (P29597 whole entry): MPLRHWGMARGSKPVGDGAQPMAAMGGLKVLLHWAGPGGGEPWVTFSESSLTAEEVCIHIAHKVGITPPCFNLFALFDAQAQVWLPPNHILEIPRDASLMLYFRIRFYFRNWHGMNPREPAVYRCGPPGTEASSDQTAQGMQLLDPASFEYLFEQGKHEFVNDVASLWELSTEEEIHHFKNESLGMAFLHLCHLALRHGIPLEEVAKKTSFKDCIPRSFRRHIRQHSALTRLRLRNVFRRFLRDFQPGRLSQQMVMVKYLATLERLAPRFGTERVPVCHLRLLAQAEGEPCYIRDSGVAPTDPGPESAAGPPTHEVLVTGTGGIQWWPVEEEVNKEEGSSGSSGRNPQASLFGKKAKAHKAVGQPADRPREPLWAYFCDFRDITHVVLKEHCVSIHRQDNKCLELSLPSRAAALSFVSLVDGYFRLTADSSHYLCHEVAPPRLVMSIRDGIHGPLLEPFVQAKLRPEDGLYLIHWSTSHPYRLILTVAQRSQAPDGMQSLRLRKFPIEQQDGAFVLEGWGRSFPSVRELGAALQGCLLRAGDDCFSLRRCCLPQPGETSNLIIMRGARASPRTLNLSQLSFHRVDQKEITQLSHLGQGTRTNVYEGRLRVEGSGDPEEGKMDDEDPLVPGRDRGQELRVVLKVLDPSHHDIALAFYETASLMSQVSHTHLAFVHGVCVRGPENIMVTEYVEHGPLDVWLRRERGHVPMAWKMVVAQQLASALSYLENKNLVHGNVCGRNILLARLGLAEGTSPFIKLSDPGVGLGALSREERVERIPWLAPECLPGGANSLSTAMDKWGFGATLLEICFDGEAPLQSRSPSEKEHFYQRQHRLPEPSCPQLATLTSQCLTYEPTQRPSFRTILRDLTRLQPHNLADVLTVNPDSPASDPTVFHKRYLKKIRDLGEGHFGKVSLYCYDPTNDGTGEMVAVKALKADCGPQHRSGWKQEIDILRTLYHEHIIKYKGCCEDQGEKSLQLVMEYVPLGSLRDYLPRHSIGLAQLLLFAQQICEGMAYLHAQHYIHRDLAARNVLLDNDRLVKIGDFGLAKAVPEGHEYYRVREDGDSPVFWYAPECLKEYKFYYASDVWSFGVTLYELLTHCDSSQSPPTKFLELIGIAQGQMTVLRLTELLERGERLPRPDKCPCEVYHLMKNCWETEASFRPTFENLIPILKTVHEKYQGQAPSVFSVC

Assay [4] deals with Tyk2-pSTAT4. As to the kind of experiment: IL-12 induced pSTAT4 in human PBMC. The assay is classed as cell-based. The note with it: read-out: Tyk2-pSTAT4 EC50. As for the experimental part: Human PBMC are isolated from buffy coat and are stored frozen for assays as needed. Cells for assay are thawed and resuspended in complete media containing serum, then cells are diluted to 1.67 E6 cells/ml so that 120 μl per well is 200,000 cells. 15 μl of compound or DMSO is added to the well at the desired concentrations and incubated at 1 hr at 37 C. 15 μl of stimulus (final concentration of 1.7 ng/mL IL-12) is added for 30 minutes prior to pSTAT4 and total STAT4 analysis using cell lysates prepared and analyzed by MSD reagents as per manufacturer protocol. The final DMSO concentration of compound in the assay is 0.1%.

Where [5] appears, read: GM-CSF induced pSTAT5, human PBMC.
Where [6] appears, read: IL-12 induced pSTAT4, human PBMC.

Data on 19 molecules can be found in patent publication US10196390B2, “TYK2 inhibitors and uses thereof” (Nimbus Lakshmi, Inc., priority 2014, dated 2019).

As a reminder, the Ki is the dissociation constant of the complex between target and ligand, obtained from inhibition or displacement. What is called EC50 is the concentration that produces a half-maximal response.

Where two headings read alike, the source gives them in different places.

JAK2, sequence (O60674 whole entry): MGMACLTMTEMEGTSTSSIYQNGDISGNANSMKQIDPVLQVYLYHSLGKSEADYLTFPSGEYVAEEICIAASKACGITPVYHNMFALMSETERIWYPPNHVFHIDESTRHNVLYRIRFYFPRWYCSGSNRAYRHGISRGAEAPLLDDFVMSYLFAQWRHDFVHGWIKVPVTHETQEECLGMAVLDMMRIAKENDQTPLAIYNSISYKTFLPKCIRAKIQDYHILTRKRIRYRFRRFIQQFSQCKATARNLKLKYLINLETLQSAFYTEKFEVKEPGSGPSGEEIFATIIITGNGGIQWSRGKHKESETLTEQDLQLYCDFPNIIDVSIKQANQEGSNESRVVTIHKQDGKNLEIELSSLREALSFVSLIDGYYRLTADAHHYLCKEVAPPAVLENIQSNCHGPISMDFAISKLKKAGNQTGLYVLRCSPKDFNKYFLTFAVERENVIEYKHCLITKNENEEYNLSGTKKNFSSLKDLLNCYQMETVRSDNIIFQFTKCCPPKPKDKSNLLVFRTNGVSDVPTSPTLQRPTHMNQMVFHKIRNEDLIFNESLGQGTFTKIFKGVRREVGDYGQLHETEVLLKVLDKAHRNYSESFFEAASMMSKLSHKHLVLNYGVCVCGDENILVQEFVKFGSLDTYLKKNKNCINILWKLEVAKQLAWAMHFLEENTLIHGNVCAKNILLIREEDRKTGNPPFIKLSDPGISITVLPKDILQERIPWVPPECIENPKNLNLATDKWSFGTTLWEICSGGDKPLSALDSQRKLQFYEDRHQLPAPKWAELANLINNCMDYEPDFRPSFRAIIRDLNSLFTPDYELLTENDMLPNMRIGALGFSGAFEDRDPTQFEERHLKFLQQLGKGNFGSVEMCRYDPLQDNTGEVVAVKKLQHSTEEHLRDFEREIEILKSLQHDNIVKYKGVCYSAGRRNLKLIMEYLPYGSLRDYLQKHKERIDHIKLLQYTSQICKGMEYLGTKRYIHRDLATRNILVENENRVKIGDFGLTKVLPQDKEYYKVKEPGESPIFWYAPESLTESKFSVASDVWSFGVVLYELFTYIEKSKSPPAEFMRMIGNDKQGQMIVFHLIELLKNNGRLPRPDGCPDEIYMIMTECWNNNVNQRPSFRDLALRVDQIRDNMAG

For the molecule `O=C1NCc2nc(-c3c(F)cccc3F)nc(Nc3ccc(CC(=O)N4CCC[C@H]4CO)cc3)c21` [Compound I-16, (S)-2-(2,6-difluorophenyl)-4-((4-(2-(2-(hydroxyl-methyl)pyrrolidin-1-yl)-2-oxoethyl)phenyl)amino)-6,7-dihydro-5H-pyrrolo[3,4-d]pyrimidin-5], the values for the inhibitory constant (Ki) in assay [1] (read-out: JAK2 Ki) and in assay [3] were 100 to 1000 nM and under 10 nM, respectively. Besides, the EC50 in assay [2] (setting [5]) was over 20000 nM; in assay [4] (setting [6]) it was under 2000 nM.

With `CCNC(=O)Cc1ccc(Nc2nc(-c3ccccc3Cl)nc3c2C(=O)NC3)cc1` [Compound I-20, 2-(4-((2-(2-chlorophenyl)-5-oxo-6,7-dihydro-5H-pyrrolo[3,4-d]pyrimidin-4-yl)amino)phenyl)-N-ethylacetamide], the results for the inhibition constant (Ki) in assay [1] (read-out: JAK2 Ki) and in assay [3] were 100 to 1000 nM and 10 to 100 nM, respectively. The half-maximal effective concentration (EC50) was over 20000 nM in assay [2] (Homo sapiens, PBMC) and under 2000 nM in assay [4] (setting [6]).

For `C[C@H]1COCCN1C(=O)Cc1ccc(Nc2nc(-c3c(F)cccc3F)nc3c2C(=O)NC3)cc1` [Compound I-64, (S)-2-(2,6-difluorophenyl)-4-((4-(2-(3-methylmorpholino)-2-oxoethyl)phenyl)amino)-6,7-dihydro-5H-pyrrolo[3,4-d]pyrimidin-5-one], the inhibition constant (Ki) in assay [1] (read-out: JAK2 Ki) was 100 to 1000 nM; in assay [3], under 10 nM. Moreover, the results for the EC50 in assay [2] (setting [5]) and in assay [4] (setting [6]) were over 20000 nM and under 2000 nM, respectively.

Turning to `O=C(Cc1ccc(Nc2nc(-c3c(F)cccc3F)nc3c2C(=O)NC3)cc1)NC1CCOCC1` [Compound I-65, 2-(4-((2-(2,6-difluorophenyl)-5-oxo-6,7-dihydro-5H-pyrrolo[3,4-d]pyrimidin-4-yl)amino)phenyl)-N-(tetrahydro-2H-pyran-4-yl)acetamide], the Ki in assay [1] (read-out: JAK2 Ki) was 100 to 1000 nM; in assay [3], under 10 nM. The EC50 in assay [2] (setting [5]) was over 20000 nM; in assay [4] (setting [6]), under 2000 nM.

As to `O=C1NCc2nc(-c3c(F)cccc3F)nc(Nc3ccc(CC(=O)N4CCOCC4)cc3)c21` [Compound I-66, 2-(2,6-difluorophenyl)-4-((4-(2-morpholino-2-oxoethyl)phenyl)amino)-6,7-dihydro-5H-pyrrolo[3,4-d]pyrimidin-5-one], the Ki in assay [1] (read-out: JAK2 Ki) was 100 to 1000 nM; in assay [3], under 10 nM. Moreover, the EC50 in assay [2] (setting [5]) was over 20000 nM; in assay [4] (setting [6]) it was under 2000 nM.

With `CN1CCN(C(=O)Cc2ccc(Nc3nc(-c4c(F)cccc4F)nc4c3C(=O)NC4)cc2)CC1` [Compound I-67, 2-(2,6-difluorophenyl)-4-((4-(2-(4-methylpiperazin-1-yl)-2-oxoethyl)phenyl)amino)-6,7-dihydro-5H-pyrrolo[3,4-d]pyrimidin-5-one], the inhibition constant (Ki) was 10 to 100 nM in assay [1] and under 10 nM in assay [3]. Moreover, the concentration giving a half-maximal response (EC50) in assay [2] (setting [5]) was over 20000 nM; in assay [4] (setting [6]), under 2000 nM.

Regarding `O=C1NCc2nc(-c3c(F)cccc3F)nc(Nc3ccc(CC(=O)N4CCN(CC(F)F)CC4)cc3)c21` [Compound I-78, 4-((4-(2-(4-(2,2-difluoroethyl)piperazin-1-yl)-2-oxoethyl)phenyl)amino)-2-(2,6-difluorophenyl)-6,7-dihydro-5H-pyrrolo[3,4-d]pyrimidin-5-one], the inhibition constant Ki is 10 to 100 nM in assay [1] and under 10 nM in assay [3]. Also, the half-maximal effective concentration (EC50) in assay [2] (Homo sapiens, PBMC) is over 20000 nM; in assay [4] (Homo sapiens, PBMC), under 2000 nM.

Regarding `O=C1NCc2nc(-c3c(F)cccc3F)nc(Nc3ccc([C@H]4CCNC4=O)cc3)c21` [Compound I-86, (R)-2-(2,6-difluorophenyl)-4-((4-(2-oxopyrrolidin-3-yl)phenyl)amino)-6,7-dihydro-5H-pyrrolo[3,4-d]pyrimidin-5-one], the Ki in assay [1] (read-out: JAK2 Ki) is 10 to 100 nM; in assay [3], under 10 nM. Further, the half-maximal effective concentration (EC50) in assay [2] (setting [5]) was over 20000 nM; in assay [4] (setting [6]) it was under 2000 nM.

As for `O=C1NCc2nc(-c3c(F)cccc3F)nc(Nc3ccc([C@@H]4CCNC4=O)cc3)c21` [Compound I-87, (S)-2-(2,6-difluorophenyl)-4-((4-(2-oxopyrrolidin-3-yl)phenyl)amino)-6,7-dihydro-5H-pyrrolo[3,4-d]pyrimidin-5-], the Ki in assay [1] (read-out: JAK2 Ki) was 10 to 100 nM; in assay [3], under 10 nM. In addition, the half-maximal effective concentration (EC50) in assay [2] (setting [5]) was over 20000 nM; in assay [4] (setting [6]) it was under 2000 nM.

In the case of `CCNC(=O)Cc1ccc(Nc2cc(-c3c(F)cccc3F)nc3c2C(=O)NC3)nc1` [Compound I-88, 2-(6-((2-(2,6-difluorophenyl)-5-oxo-6,7-dihydro-5H-pyrrolo[3,4-b]pyridin-4-yl)amino)pyridin-3-yl)-N-ethylacetamide], the values for the inhibition constant (Ki) in assay [1] (read-out: JAK2 Ki) and in assay [3] were 100 to 1000 nM and 10 to 100 nM, respectively. Moreover, the EC50 is under 2000 nM in assay [2] (Homo sapiens, PBMC) and under 2000 nM in assay [4] (Homo sapiens, PBMC).

Regarding `CC(C)(C(=O)O)c1ccc(Nc2nc(-c3c(F)cccc3F)nc3c2C(=O)NC3)cc1` [Compound I-109, 2-(4-((2-(2,6-difluorophenyl)-5-oxo-6,7-dihydro-5H-pyrrolo[3,4-d]pyrimidin-4-yl)amino)phenyl)-2-methylpropanoic Acid], the Ki is 100 to 1000 nM in assay [1] (read-out: JAK2 Ki) and under 10 nM in assay [3]. Further, the EC50 in assay [2] (setting [5]) is over 20000 nM; in assay [4] (Homo sapiens, PBMC) it was 2000 to 20000 nM.

As to `COc1ccc(Nc2nc(-c3c(F)cccc3F)nc3c2C(=O)NC3)cc1` [Compound I-110, 2-(2,6-difluorophenyl)-4-((4-methoxyphenyl)amino)-6,7-dihydro-5H-pyrrolo[3,4-d]pyrimidin-5-one], the values for the Ki in assay [1] (read-out: JAK2 Ki) and in assay [3] were over 1000 nM and under 10 nM, respectively. Further, the EC50 is over 20000 nM in assay [2] (Homo sapiens, PBMC) and under 2000 nM in assay [4] (Homo sapiens, PBMC).

For `O=C1NCc2nc(-c3c(F)cccc3Cl)nc(Nc3ccc([C@H]4CCNC4=O)cc3)c21` [Compound I-114, (R)-2-(2-chloro-6-fluorophenyl)-4-((4-(2-oxopyrrolidin-3-yl)phenyl)amino)-6,7-dihydro-5H-pyrrolo[3,4-d]pyrimidin-5-one], the Ki in assay [1] (read-out: JAK2 Ki) was 100 to 1000 nM; in assay [3], under 10 nM. For the same molecule, the concentration for a half-maximal effect (EC50) is 2000 to 20000 nM in assay [2] (setting [5]) and under 2000 nM in assay [4] (setting [6]).

As for `O=C1NCc2nc(-c3c(F)cccc3Cl)nc(Nc3ccc([C@@H]4CCNC4=O)cc3)c21` [Compound I-115, (S)-2-(2-chloro-6-fluorophenyl)-4-((4-(2-oxopyrrolidin-3-yl)phenyl)amino)-6,7-dihydro-5H-pyrrolo[3,4-d]pyrimidin-5-one], the inhibitory constant (Ki) in assay [1] (read-out: JAK2 Ki) fell in the range of 100 to 1000 nM; in assay [3], 10 to 100 nM. Also, the EC50 is 2000 to 20000 nM in assay [2] (setting [5]) and under 2000 nM in assay [4] (setting [6]).

As for `O=C1NCc2nc(-c3c(F)cccc3F)nc(Nc3ccc(C4CCN(C5CCC5)C4=O)cc3)c21` (centres unmarked) [Compound I-117, 4-((4-(1-cyclobutyl-2-oxopyrrolidin-3-yl)phenyl)amino)-2-(2,6-difluorophenyl)-6,7-dihydro-5H-pyrrolo[3,4-d]pyrimidin-5-one], the Ki is 100 to 1000 nM in assay [1] (read-out: JAK2 Ki) and under 10 nM in assay [3]. Also, the half-maximal effective concentration (EC50) was over 20000 nM in assay [2] (Homo sapiens, PBMC) and under 2000 nM in assay [4] (Homo sapiens, PBMC).

Take `O=C1NCc2nc(-c3c(F)cccc3F)nc(Nc3ccc(Cn4ccnn4)cc3)c21` [Compound I-128, 4-((4-((1H-1,2,3-triazol-1-yl)methyl)phenyl)amino)-2-(2,6-difluorophenyl)-6,7-dihydro-5H-pyrrolo[3,4-d]pyrimidin-5-one]: the results for the Ki in assay [1] (read-out: JAK2 Ki) and in assay [3] were 100 to 1000 nM and under 10 nM, respectively. The EC50 in assay [2] (Homo sapiens, PBMC) was over 20000 nM; in assay [4] (Homo sapiens, PBMC), under 2000 nM.

As for `O=C1NCc2nc(-c3c(F)cccc3F)cc(Nc3ccc(NCCN4CCC(F)(F)CC4)cn3)c21` [Compound I-135, 2-(2,6-difluorophenyl)-4-((5-((2-(4,4-difluoropiperidin-1-yl)ethyl)amino)pyridin-2-yl)amino)-6,7-dihydro-5H-pyrrolo[3,4-b]pyridin-5-one], the Ki is 10 to 100 nM in assay [1] (read-out: JAK2 Ki) and under 10 nM in assay [3]. For the same molecule, the EC50 in assay [2] (setting [5]) and in assay [4] (setting [6]) was under 2000 nM in each case.

For `C[C@@H]1CCC[C@@H](C)N1c1ccc(Nc2cc(-c3c(F)cccc3F)nc3c2C(=O)NC3)nc1` [Compound I-265, 2-(2,6-difluorophenyl)-4-((5-((2R,6R)-2,6-dimethylpiperidin-1-yl)pyridin-2-yl)amino)-6,7-dihydro-5H-pyrrolo[3,4-b]pyridin-5-one], the inhibitory constant (Ki) in assay [1] (read-out: JAK2 Ki) was in the range of 10 to 100 nM. Further, the EC50 is 2000 to 20000 nM in assay [2] (setting [5]) and under 2000 nM in assay [4] (setting [6]).

`CC1(C)OCCN(c2ccc(Nc3cc(-c4c(F)cccc4F)nc4c3C(=O)NC4)nc2)C1=O` [Compound I-273, 4-(6-((2-(2,6-difluorophenyl)-5-oxo-6,7-dihydro-5H-pyrrolo[3,4-b]pyridin-4-yl)amino)pyridin-3-yl)-2,2-dimethylmorpholin-3-one]: the inhibition constant Ki in assay [1] (read-out: JAK2 Ki) was in the range of 10 to 100 nM. Further, the EC50 in assay [2] (setting [5]) and in assay [4] (setting [6]) was under 2000 nM each time.
